Test results: patent US12540131B2 (Merck Sharp & Dohme LLC, priority 2019, dated 2026)

biological target: GST tagged truncated human mutant G2019S LRRK2 (Homo sapiens (Human), UniProt Q5S007, G2019S); assay: LRRK2 Km ATP LanthaScreen Assay; assay type: biochemical; settings: G2019S LRRK2, 134 μM ATP (Km ATP), mean values
How it was run: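 Enzyme (GST-tagged, truncated) was preincubated with compound for 15 min at RT in 50 mM Tris pH 8.5, 10 mM MgCl2, 0.01% Brij-35, 1 mM EGTA, 2 mM DTT and 0.05 mM orthovanadate. Fluorescein-LRRKtide and 134 μM ATP (Km) were then added for 90 min. EDTA and Tb-anti-pERM antibody stopped the reaction; the TR-FRET 520/495 ratio gave 4-parameter IC50s, reported as mean pIC50.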

GST tagged truncated human mutant G2019S LRRK2, sequence (Q5S007 970-2527 G2019S): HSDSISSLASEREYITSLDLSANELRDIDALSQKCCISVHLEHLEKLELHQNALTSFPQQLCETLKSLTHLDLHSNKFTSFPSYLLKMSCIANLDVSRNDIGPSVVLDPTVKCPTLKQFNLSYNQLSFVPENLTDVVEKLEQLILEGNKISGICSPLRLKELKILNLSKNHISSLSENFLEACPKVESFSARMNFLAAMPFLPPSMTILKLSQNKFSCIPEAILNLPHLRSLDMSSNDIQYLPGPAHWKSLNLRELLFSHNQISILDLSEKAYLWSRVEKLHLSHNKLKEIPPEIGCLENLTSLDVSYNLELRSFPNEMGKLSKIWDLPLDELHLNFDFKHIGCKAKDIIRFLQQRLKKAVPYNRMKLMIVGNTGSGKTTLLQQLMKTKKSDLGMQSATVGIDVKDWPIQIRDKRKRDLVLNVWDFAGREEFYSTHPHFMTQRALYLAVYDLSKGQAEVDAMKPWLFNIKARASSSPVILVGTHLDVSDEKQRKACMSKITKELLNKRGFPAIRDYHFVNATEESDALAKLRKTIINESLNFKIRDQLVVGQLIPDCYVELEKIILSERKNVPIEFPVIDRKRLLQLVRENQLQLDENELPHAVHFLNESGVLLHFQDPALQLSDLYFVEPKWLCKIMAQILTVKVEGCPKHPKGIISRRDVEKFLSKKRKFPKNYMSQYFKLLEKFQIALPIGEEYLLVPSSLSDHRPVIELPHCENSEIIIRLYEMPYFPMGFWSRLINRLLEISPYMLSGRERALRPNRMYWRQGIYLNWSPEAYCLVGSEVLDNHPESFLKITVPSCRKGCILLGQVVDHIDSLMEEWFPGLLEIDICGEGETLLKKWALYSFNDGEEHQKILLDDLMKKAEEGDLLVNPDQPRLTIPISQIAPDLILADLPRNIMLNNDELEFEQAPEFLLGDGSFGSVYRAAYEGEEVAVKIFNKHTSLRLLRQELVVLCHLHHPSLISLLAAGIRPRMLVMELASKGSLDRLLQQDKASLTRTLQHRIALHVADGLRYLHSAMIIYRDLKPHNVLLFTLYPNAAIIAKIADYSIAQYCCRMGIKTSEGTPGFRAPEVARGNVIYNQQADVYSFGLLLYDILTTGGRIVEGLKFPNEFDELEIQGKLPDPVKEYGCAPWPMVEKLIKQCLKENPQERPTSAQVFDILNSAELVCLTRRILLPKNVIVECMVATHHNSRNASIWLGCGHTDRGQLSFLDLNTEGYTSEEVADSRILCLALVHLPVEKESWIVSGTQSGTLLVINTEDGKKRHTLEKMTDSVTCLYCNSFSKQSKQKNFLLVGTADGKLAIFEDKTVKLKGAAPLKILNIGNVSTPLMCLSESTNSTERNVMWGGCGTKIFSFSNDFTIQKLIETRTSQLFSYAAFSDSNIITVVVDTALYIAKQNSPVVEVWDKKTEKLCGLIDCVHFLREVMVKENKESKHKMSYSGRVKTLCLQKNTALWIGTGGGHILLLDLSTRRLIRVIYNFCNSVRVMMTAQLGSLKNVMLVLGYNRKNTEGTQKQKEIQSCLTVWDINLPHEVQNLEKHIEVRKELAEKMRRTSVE

Going from `N#Cc1cc2cnc(Nc3cnn(C4CC4(F)F)c3Cl)nc2cc1[C@@H]1CCN(C2COC2)C[C@H]1F` (single isomer, unassigned) [Ex-6.4, (R)(3S,4S) or (S)(3S,4S) or (R)(3R,4R) or (S)(3R,4R) 2-((5-chloro-1-(2,2-difluorocyclopropyl)-1H-pyrazol-4-yl)amino)-7-(3-fluoro-1-(oxetan-3-yl)piperidin-4-yl)quinazoline-6-carbonitrile] to `N#Cc1cc2cnc(Nc3cnn(C4CC4(F)F)c3Cl)nc2cc1[C@H]1CCN(C2COC2)C[C@@H]1F` (single isomer, unassigned) [Ex-6.6, (R)(3S,4S) or (S)(3S,4S) or (R)(3R,4R) or (S)(3R,4R) 2-((5-chloro-1-(2,2-difluorocyclopropyl)-1H-pyrazol-4-yl)amino)-7-(3-fluoro-1-(oxetan-3-yl)piperidin-4-yl)quinazoline-6-carbonitrile], the “LRRK2 pIC50” value falls from 9.18 to 8.94.

`N#Cc1cc2cnc(Nc3cnn(C4CC4(F)F)c3Cl)nc2cc1[C@H]1CCN(C2COC2)C[C@@H]1F` (single isomer, unassigned) [Ex-6.7, (R)(3S,4S) or (S)(3S,4S) or (R)(3R,4R) or (S)(3R,4R) 2-((5-chloro-1-(2,2-difluorocyclopropyl)-1H-pyrazol-4-yl)amino)-7-(3-fluoro-1-(oxetan-3-yl)piperidin-4-yl)quinazoline-6-carbonitrile] and `F[C@@H]1CN(C2COC2)CC[C@H]1c1cc2nc(Nc3cnn(C4CC4(F)F)c3Cl)ncc2cc1Cl` (single isomer, unassigned) [Ex-8.28, (R)(3S,4S) or (S)(3S,4S) or (R)(3R,4R) or (S)(3R,4R) 6-chloro-N-[5-chloro-1-(2,2-difluorocyclopropyl)-1H-pyrazol-4-yl]-7-[3-fluoro-1-(oxetan-3-yl)piperidin-4-yl]quinazolin-2-amine] are within 0.2 log units of each other in “LRRK2 pIC50” value: 9.01 for the first, 9.04 for the second.

`Cc1cc2cnc(Nc3cnn(C4CC4)c3Cl)nc2cc1[C@@H]1CCN(C2COCC2F)C[C@H]1F` (single isomer, unassigned) [Ex-7.9, (3S,4R)(3S,4S) or (3R,4S)(3S,4S) or (3R,4R)(3S,4S) or (3S,4S)(3S,4S) or (3S,4R)(3R,4R) or (3R,4S)(3R,4R) or (3R,4R)(3R,4R) or (3S,4S)(3R,4R) N-(5-chloro-1-cyclopropyl-1H-pyrazol-4-yl)-7-[3-fluoro-1-(4-fluorooxolan-3-yl)piperidin-4-yl]-6-methylquinazolin-2-amine] and `F[C@@H]1CN(C2COC2)CC[C@H]1c1cc2nc(Nc3cnn(C4CC4(F)F)c3Cl)ncc2cc1Cl` (single isomer, unassigned) [Ex-8.29, (R)(3S,4S) or (S)(3S,4S) or (R)(3R,4R) or (S)(3R,4R) 6-chloro-N-[5-chloro-1-(2,2-difluorocyclopropyl)-1H-pyrazol-4-yl]-7-[3-fluoro-1-(oxetan-3-yl)piperidin-4-yl]quinazolin-2-amine] are within 0.2 log units of each other in “LRRK2 pIC50” value: 9.04 for the first, 8.88 for the second.

`Cc1nsc(Nc2ncc3cc(Cl)c([C@@H]4CCN(C5CCOC5)C[C@H]4F)cc3n2)c1Cl` (single isomer, unassigned) [Ex-8.20, (3S,4S)(S) or (3S,4S)(R) or (3R,4R)(S) or (3R,4R)(R) 6-chloro-N-(4-chloro-3-methyl-1,2-thiazol-5-yl)-7-[3-fluoro-1-(oxolan-3-yl)piperidin-4-yl]quinazolin-2-amine] and `Cc1nsc(Nc2ncc3cc(Cl)c([C@H]4CCN(C5CCOC5)C[C@@H]4F)cc3n2)c1Cl` (single isomer, unassigned) [Ex-8.22, (3S,4S)(S) or (3S,4S)(R) or (3R,4R)(S) or (3R,4R)(R) 6-chloro-N-(4-chloro-3-methyl-1,2-thiazol-5-yl)-7-[3-fluoro-1-(oxolan-3-yl)piperidin-4-yl]quinazolin-2-amine] are within 0.2 log units of each other in “LRRK2 pIC50” value: 8.53 for the first, 8.68 for the second.

Going from `Cc1nsc(Nc2ncc3cc(Cl)c([C@@H]4CCN(C5CCOC5)C[C@H]4F)cc3n2)c1Cl` (single isomer, unassigned) [Ex-8.21, (3S,4S)(S) or (3S,4S)(R) or (3R,4R)(S) or (3R,4R)(R) 6-chloro-N-(4-chloro-3-methyl-1,2-thiazol-5-yl)-7-[3-fluoro-1-(oxolan-3-yl)piperidin-4-yl]quinazolin-2-amine] to `Cc1nsc(Nc2ncc3cc(Cl)c([C@H]4CCN(C5CCOC5)C[C@@H]4F)cc3n2)c1Cl` (single isomer, unassigned) [Ex-8.23, (3S,4S)(S) or (3S,4S)(R) or (3R,4R)(S) or (3R,4R)(R) 6-chloro-N-(4-chloro-3-methyl-1,2-thiazol-5-yl)-7-[3-fluoro-1-(oxolan-3-yl)piperidin-4-yl]quinazolin-2-amine], the “LRRK2 pIC50” value falls from 8.44 to 8.12.

With `F[C@H]1CN(C2COC2)CC[C@@H]1c1cc2nc(Nc3cnn(C4CC4(F)F)c3Cl)ncc2cc1Cl` (single isomer, unassigned) [Ex-8.30, (R)(3S,4S) or (S)(3S,4S) or (R)(3R,4R) or (S)(3R,4R) 6-chloro-N-[5-chloro-1-(2,2-difluorocyclopropyl)-1H-pyrazol-4-yl]-7-[3-fluoro-1-(oxetan-3-yl)piperidin-4-yl]quinazolin-2-amine] the “LRRK2 pIC50” value was 8.96.

For `N#Cc1cc2cnc(Nc3cnn(C4CC4(F)F)c3Cl)nc2cc1[C@@H]1CCN(C2COC2)C[C@H]1F` (single isomer, unassigned) [Ex-6.5, (R)(3S,4S) or (S)(3S,4S) or (R)(3R,4R) or (S)(3R,4R) 2-((5-chloro-1-(2,2-difluorocyclopropyl)-1H-pyrazol-4-yl)amino)-7-(3-fluoro-1-(oxetan-3-yl)piperidin-4-yl)quinazoline-6-carbonitrile], the “LRRK2 pIC50” value was greater than 9.20.
`Cc1c(Nc2ncc3cc(Cl)c(C4CCN(C5COCC5F)CC4)cc3n2)cnn1C1CC1` (single isomer, unassigned) [Ex-7.4, (3S,4S) or (3R,4R) or (3S,4R) or (3R,4S) 6-chloro-N-(1-cyclopropyl-5-methyl-1H-pyrazol-4-yl)-7-[1-(4-fluorooxolan-3-yl)piperidin-4-yl]quinazolin-2-amine] was tested, and the “LRRK2 pIC50” value was greater than 9.20.
For `CO[C@H]1COC[C@H]1N1CCC(c2cc3nc(Nc4cnn(C5CC5)c4C)ncc3cc2Cl)CC1` (single isomer, unassigned) [Ex-7.5, (3S,4S) or (3R,4R) 6-chloro-N-(1-cyclopropyl-5-methyl-1H-pyrazol-4-yl)-7-[1-(4-methoxyoxolan-3-yl)piperidin-4-yl]quinazolin-2-amine], the “LRRK2 pIC50” value was greater than 9.20.
With `Cc1cc2cnc(Nc3cnn(C4CC4(F)F)c3C)nc2cc1[C@@H]1CCN(C2COCC2F)C[C@H]1F` (single isomer, unassigned) [Ex-7.6] the “LRRK2 pIC50” value was greater than 9.20.
For `F[C@H]1CN(C2COC2)CC[C@@H]1c1cc2nc(Nc3cnn(C4CC4(F)F)c3Cl)ncc2cc1Cl` (single isomer, unassigned) [Ex-8.31, (R)(3S,4S) or (S)(3S,4S) or (R)(3R,4R) or (S)(3R,4R) 6-chloro-N-[5-chloro-1-(2,2-difluorocyclopropyl)-1H-pyrazol-4-yl]-7-[3-fluoro-1-(oxetan-3-yl)piperidin-4-yl]quinazolin-2-amine], the “LRRK2 pIC50” value was greater than 9.20.

same assay, conditions: G2019S LRRK2, 134 μM ATP (Km ATP), mean values; read-out: LRRK2 pIC50 (converted)

Going from `CO[C@@H]1COC[C@]1(C)N1CCC(c2cc3nc(Nc4cnn(C5CC5)c4C)ncc3cc2Cl)CC1` (single isomer, unassigned) [Ex-7.3, (3S,4S) or (3R,4R) 6-chloro-N-(1-cyclopropyl-5-methyl-1H-pyrazol-4-yl)-7-(1-(4-methoxy-3-methyltetrahydrofuran-3-yl)piperidin-4-yl)quinazolin-2-amine] to `CC(n1ncc(Nc2ncc3cc(Cl)c(C4CCN(C5COC5)CC4)cc3n2)c1Cl)C(F)(F)F` (single isomer, unassigned) [Ex-8.3, (S) or (R) 6-chloro-N-[5-chloro-1-(1,1,1-trifluoropropan-2-yl)-1H-pyrazol-4-yl]-7-[1-(oxetan-3-yl)piperidin-4-yl]quinazolin-2-amine], the IC50 falls from 11.7 nM to less than 0.631 nM.

`Cc1nsc(Nc2ncc3cc(Cl)c(C4CCN(C5CCOC5)CC4)cc3n2)c1Cl` (single isomer, unassigned) [Ex-8.18, (S) or (R) 6-chloro-N-(4-chloro-3-methyl-1,2-thiazol-5-yl)-7-[1-(oxolan-3-yl)piperidin-4-yl]quinazolin-2-amine] and `CC(O)(Cn1ncc(Nc2ncc3cc(Cl)c(C4CCN(C5COC5)CC4)cc3n2)c1Cl)C(F)(F)F` (single isomer, unassigned) [Ex-8.25, (S) or (R) 3-[5-chloro-4-({6-chloro-7-[1-(oxetan-3-yl)piperidin-4-yl]quinazolin-2-yl}amino)-1H-pyrazol-1-yl]-1,1,1-trifluoro-2-methylpropan-2-ol] cannot be ordered by IC50: less than 0.631 nM for the first, less than 0.631 nM for the second.

`Cc1nsc(Nc2ncc3cc(Cl)c(C4CCN(C5CCOC5)CC4)cc3n2)c1Cl` (single isomer, unassigned) [Ex-8.19, (S) or (R) 6-chloro-N-(4-chloro-3-methyl-1,2-thiazol-5-yl)-7-[1-(oxolan-3-yl)piperidin-4-yl]quinazolin-2-amine] and `CC(O)(Cn1ncc(Nc2ncc3cc(Cl)c(C4CCN(C5COC5)CC4)cc3n2)c1Cl)C(F)(F)F` (single isomer, unassigned) [Ex-8.27, (S) or (R) 3-[5-chloro-4-({6-chloro-7-[1-(oxetan-3-yl)piperidin-4-yl]quinazolin-2-yl}amino)-1H-pyrazol-1-yl]-1,1,1-trifluoro-2-methylpropan-2-ol] are within 1.5-fold of each other in IC50: 1.15 nM for the first, 0.851 nM for the second.
